Assay results taken from patent US8765779B2, “Tricyclic derivatives and their pharmaceutical use and compositions” (Cephalon, Inc., priority 2009, dated 2014).
pKi: −log10 of the molar value.

Target: T1, human 5-HT6 receptor (Homo sapiens, UniProt P50406)
T1 construct: host or cells: CHO-K1 cells, stably transfected; membranes prepared in house
Assay: Human 5-HT6 Receptor Binding Assay ([3H]LSD displacement, scintillation beads)
Details: membranes of CHO-K1 cells with recombinant human 5-HT6, 4 nM [3H]LSD; Table 1, class symbols; read-out: h5-HT6 (Ki)

T1 sequence (P50406 whole entry): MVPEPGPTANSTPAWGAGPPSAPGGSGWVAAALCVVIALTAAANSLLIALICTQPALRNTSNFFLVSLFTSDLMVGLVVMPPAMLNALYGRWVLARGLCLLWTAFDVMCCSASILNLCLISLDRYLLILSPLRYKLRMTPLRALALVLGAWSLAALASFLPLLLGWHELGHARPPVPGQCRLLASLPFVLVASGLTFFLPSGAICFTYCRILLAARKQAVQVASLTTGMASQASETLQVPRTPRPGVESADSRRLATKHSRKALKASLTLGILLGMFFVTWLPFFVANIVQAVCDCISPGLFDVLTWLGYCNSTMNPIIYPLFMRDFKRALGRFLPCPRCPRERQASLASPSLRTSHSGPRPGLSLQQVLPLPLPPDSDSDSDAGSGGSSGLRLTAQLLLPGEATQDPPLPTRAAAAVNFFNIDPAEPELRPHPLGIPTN

Row | SMILES | pKi
1 | CCOc1cc(F)cc(S(=O)(=O)c2ccc3c(c2)OC2CNCCC32)c1 (stereo not shown) [Example 413] | > 6.30
2 | O=S(=O)(Nc1ccc2c(c1)C1CCNCC1O2)c1cc2ccccc2s1 (stereo not shown) [Example 834] | > 6.30
3 | O=S(=O)(c1ccc2c(c1)C1CCNCC1O2)N1CCc2ccccc21 (stereo not shown) [Example 838] | 6.00 to 6.30
4 | N#Cc1ccc(S(=O)(=O)c2ccc3c4c(oc3c2)CNCC4)cc1 [Example 220] | > 6.30
5 | CC12CCNCC1Oc1cc(S(=O)(=O)c3ccccn3)ccc12 (racemic) [Example 8, 4a-methyl-7-(pyridin-2-ylsulfonyl)-1,2,3,4,4a,9a-hexahydro[1]benzofuro[2,3-c]pyridine] | < 6.00
6 | CC(C)c1ccc(S(=O)(=O)c2ccc3c4c(oc3c2)CNCC4)cc1 [Example 195] | > 6.30
7 | O=[N+]([O-])c1ccc(S(=O)(=O)c2ccc3c4c(oc3c2)CNCC4)cc1 [Example 205] | > 6.30
8 | O=S(=O)(c1ccc2c(c1)C1CCNCC1O2)N1CCN(c2ccccc2)CC1 (stereo not shown) [Example 845] | < 6.00
9 | CC(C)COc1cc(F)cc(S(=O)(=O)c2ccc3c(c2)OC2CNCCC32C)c1 (stereo not shown) [Example 424] | > 6.30
10 | CCOc1cccc(S(=O)(=O)c2ccc3c(c2)OC2CNCCC32C)c1 (racemic) [Example 10, 7-[(3-ethoxyphenyl)sulfonyl]-4a-methyl-1,2,3,4,4a,9a-hexahydro[1]benzofuro[2,3-c]pyridine] | > 6.30
11 | O=S(=O)(c1cccc(OC(F)(F)F)c1)c1ccc2c(c1)OC1CNCCC21 (stereo not shown) [Example 160, 7-{[3-(trifluoromethoxy)phenyl]sulfo-nyl}-1,2,3,4,4a,9a-hexahydro[1]benzofuro[2,3-c]pyridine] | > 6.30
12 | O=S(=O)(c1cccc(F)c1)c1ccc2c3c(oc2c1)C1(CCOCC1F)NCC3 (single isomer, unassigned) [Example 54, 3′-Fluoro-7-[(3-fluorophenyl)sulfonyl]-2′,3,3′,4,5′,6′-hexahydro-2H-spiro[1-benzofuro[2,3-c]pyridine-1,4′-pyran]] | > 6.30
13 | O=S(=O)(Oc1ccc2c(c1)OC1CNCCC21)c1ccc(C(F)(F)F)cc1 (stereo not shown) [Example 673] | > 6.30
14 | COc1ccc(S(=O)(=O)c2ccc3oc4c(c3c2)CCNC4)cc1F [Example 241] | > 6.30
15 | COCCOc1cccc(S(=O)(=O)c2ccc3c(c2)OC2CNCCC32)c1 (stereo not shown) [Example 558] | 6.00 to 6.30
16 | CC1(C)CNCc2oc3cc(S(=O)(=O)c4cncc(Cl)c4)ccc3c21 [Example 452] | > 6.30
17 | CC12CCNCC1Oc1ccc(OS(=O)(=O)Cc3cccc(Cl)c3)cc12 (stereo not shown) [Example 791] | > 6.30
18 | CC(C)Oc1cccc([S+]([O-])c2ccc3c4c(oc3c2)CNCC4)c1 (stereo not shown) [Example 216] | > 6.30
19 | O=C(COc1cccc(S(=O)(=O)c2ccc3c(c2)OC2CNCCC32)c1)N1CCCC1 (stereo not shown) [Example 564] | < 6.00
20 | COCCCOc1cc(OC(C)C)cc(S(=O)(=O)c2ccc3c(c2)OC2CNCCC32)c1 (stereo not shown) [Example 588] | > 6.30
21 | CC12CCNCC1Oc1ccc(OS(=O)(=O)c3ccc(C(F)(F)F)cc3)cc12 (stereo not shown) [Example 778] | < 6.00
22 | O=S(=O)(c1cccc(OCC2CCOCC2)c1)c1ccc2c(c1)OC1CNCCC21 (stereo not shown) [Example 570, 7-{[3-(tetrahydro-2H-pyran-4-ylmethoxy)phenyl]sulfonyl}-1,2,3,4,4a,9a-hexahydro[1]benzofuro[2,3-c]pyridine] | > 6.30
23 | O=S(=O)(c1ccc2c(c1)C1CCNCC1O2)c1ccc2ccccc2c1 (stereo not shown) [Example 175] | > 6.30
24 | COc1ccc(S(=O)(=O)c2ccc3c(c2)OC2CNCCC32)cc1F (stereo not shown) [Example 129] | 6.00 to 6.30

Row | SMILES | pKi
25 | CC1(C)NCCc2c1oc1cc(S(=O)(=O)c3cccc(Cl)c3)ccc21 [Example 17, 7-[(3-chlorophenyl)sulfonyl]-1,1-dimethyl-1,2,3,4-tetrahydro[1]benzofuro[2,3-c]pyridine] | > 6.30
26 | O=S(=O)(Oc1ccc2c(c1)OC1CN(C3CCC3)CCC21)c1ccc(Cl)cc1 (stereo not shown) [Example 800] | < 6.00
27 | COCC1(C)NCCc2c1oc1cc(S(=O)(=O)c3cccc(F)c3)ccc21 (stereo not shown) [Example 634] | > 6.30
28 | CC1OCCC12NCCc1c2oc2cc(S(=O)(=O)c3cccc(F)c3)ccc12 (single isomer, unassigned) [Example 61, 7-[(3-Fluorophenyl)sulfonyl]-2′-methyl-3,4,4′,5′-tetrahydro-2H-spiro[1-benzofuro[2,3-c]pyridine-1,3′-furan]] | > 6.30
29 | O=S(=O)(Oc1ccc2c(c1)C1CCNCC1O2)c1ccccc1 (stereo not shown) [Example 696] | < 6.00
30 | CC12CCN(C3CCCC3)CC1Oc1ccc(OS(=O)(=O)Cc3ccccc3)cc12 (stereo not shown) [Example 806] | < 6.00
31 | O=S(=O)(c1ccc2c(c1)OC1CNCCC21)c1cccc(OCC2CCOCC2)c1Cl (stereo not shown) [Example 485] | > 6.30
32 | CC12CCNCC1Oc1ccc(OS(=O)(=O)c3ccc4ccccc4c3)cc12 (stereo not shown) [Example 769] | > 6.30
33 | O=S(=O)(c1ccc2c(c1)OC1CNCCC21)c1cccnc1C(F)(F)F (stereo not shown) [Example 423] | > 6.30
34 | CCN1CCC2c3ccc(S(=O)(=O)c4ccccc4)cc3OC2C1 (stereo not shown) [Example 605] | 6.00 to 6.30
35 | O=S(=O)(c1ccc2c(c1)OCCO2)c1ccc2c(c1)OC1CNCCC21 (stereo not shown) [Example 119] | > 6.30
36 | CC12CCN(Cc3ccccc3)CC1Oc1ccc(OS(=O)(=O)Cc3ccccc3)cc12 (stereo not shown) [Example 808] | < 6.00
37 | CC12CCNCC1Oc1cc(S(=O)(=O)c3cc[nH]c(=O)c3)ccc12 (stereo not shown) [Example 428] | < 6.00
38 | CC1(C)NCCc2c1oc1cc(S(=O)(=O)c3ccc(N4CCCC4)nc3)ccc21 [Example 380] | < 6.00
39 | O=S(=O)(Nc1ccc2c(c1)C1CCNCC1O2)c1cccc(Cl)c1 (stereo not shown) [Example 826] | > 6.30
40 | O=S(=O)(c1ccc2c3c(oc2c1)CNCC3)c1cccc2c1OCCO2 [Example 467] | > 6.30
41 | O=S(=O)(NCCc1ccccc1)c1ccc2c(c1)C1CCNCC1O2 (stereo not shown) [Example 855] | < 6.00
42 | O=S(=O)(c1ccc2c(c1)OC1CNCCC21)c1cccc(Cl)c1Cl (stereo not shown) [Example 156] | > 6.30
43 | O=S(=O)(c1cc(F)cc(Cl)c1)c1ccc2c(c1)OC1CNCCC21 (stereo not shown) [Example 163] | > 6.30
44 | O=S(=O)(c1cccc(Cl)c1)c1ccc2c3c(oc2c1)C1(CCOC1)NCC3 (stereo not shown) [Example 303] | > 6.30
45 | [O-][S+](c1cncc(Cl)c1)c1ccc2c(c1)OC1CNCCC21 (stereo not shown) [Example 391] | < 6.00
46 | CC1(C)CNC2(CCOCC2)c2oc3cc([S+]([O-])c4cccc(F)c4)ccc3c21 (racemic) [Example 47, 7-[(3-fluorophenyl)sulfinyl]-4,4-dimethyl-2′,3,3′,4,5′,6′-hexahydro-2H-spiro[1-benzofuro[2,3-c]pyridine-1,4′-pyran]] | > 6.30
47 | CC12CCNCC1Oc1cc(S(=O)(=O)c3cccc(F)c3)ccc12 (racemic) [Example 11, 7-[(3-fluorophenyl)sulfonyl]-4a-methyl-1,2,3,4,4a,9a-hexahydro[1]benzofuro[2,3-c]pyridine] | > 6.30
48 | CC12CCNCC1Oc1ccc(OS(=O)(=O)c3cc4ccccc4s3)cc12 (stereo not shown) [Example 773] | > 6.30

Continued, values first:

Row | pKi | SMILES
49 | > 6.30 | CC1(C)NCCc2c1oc1cc(S(=O)(=O)c3ccc(F)c(F)c3)ccc21 [Example 290]
50 | > 6.30 | O=S(=O)(c1cccc(Cl)c1)c1ccc2c3c(oc2c1)CN(CCO)CC3 [Example 599]
51 | > 6.30 | O=S(=O)(Oc1ccc2c(c1)C1CCNCC1O2)c1cccc(C(F)(F)F)c1 (stereo not shown) [Example 737]
52 | > 6.30 | COc1cc(OC2CCC2)cc(S(=O)(=O)c2ccc3c(c2)OC2CNCCC32)c1 (stereo not shown) [Example 583]
53 | 6.00 to 6.30 | O=[N+]([O-])c1ccc(S(=O)(=O)Oc2ccc3c(c2)OC2CNCCC32)cc1 (stereo not shown) [Example 688]
54 | < 6.00 | COc1ccc(S(=O)(=O)c2ccc3c(c2)OC2CNCCC32)cc1 (stereo not shown) [Example 323]
55 | > 6.30 | Cc1c(S(=O)(=O)Oc2ccc3c(c2)OC2CNCCC32)sc2ccc(Cl)cc12 (stereo not shown) [Example 797]
56 | < 6.00 | O=S(=O)(c1ccc2c(c1)C1CCNCC1O2)N1CCC2CCCCC2C1 (stereo not shown) [Example 860]
57 | > 6.30 | O=S(=O)(c1cccc(Cl)c1)c1ccc2c(c1)OC1CNCCC21 (stereo not shown) [Example 112]
58 | > 6.30 | CC1(C)CNC2(CCOC2)c2oc3cc(S(=O)(=O)c4cncc(Cl)c4)ccc3c21 (stereo not shown) [Example 456]
59 | > 6.30 | O=S(=O)(c1ccc(F)c(Cl)c1)c1ccc2oc3c(c2c1)CCNC3 [Example 258]
60 | > 6.30 | COc1cccc(S(=O)(=O)c2ccc3c(c2)C2CCNCC2O3)c1 (stereo not shown) [Example 178]
61 | < 6.00 | O=S(=O)(c1ccc2c(c1)C1CCNCC1O2)N1CCC2(CC1)OCc1ccccc12 (stereo not shown) [Example 862]
62 | > 6.30 | O=S(=O)(Oc1ccc2c(c1)C1CCNCC1O2)c1csc2ccccc12 (stereo not shown) [Example 726]
63 | > 6.30 | O=S(=O)(c1ccc2c(c1)OC1CNCCC21)c1cc(F)ccc1F (stereo not shown) [Example 143]
64 | < 6.00 | O=[N+]([O-])c1ccc(S(=O)(=O)c2ccc3c(c2)OC2CNCCC32)cc1 (stereo not shown) [Example 124]
65 | > 6.30 | O=S(=O)(c1ccc2ccccc2c1)c1cccc2c1OC1CNCCC21 (stereo not shown) [Example 189]
66 | > 6.30 | O=S(=O)(c1cccc(F)c1)c1ccc2c3c(oc2c1)CNCC3 [Example 341]
67 | > 6.30 | N#Cc1ccc(COc2cccc(S(=O)(=O)c3ccc4c(c3)OC3CNCCC43)c2)cc1 (stereo not shown) [Example 551]
68 | > 6.30 | CC(C)Oc1cccc(S(=O)(=O)c2ccc3c4c(oc3c2)C2(CCOC2)NCC4)c1 (single isomer, unassigned) [Example 32, 7-{[3-(propan-2-yloxy)phenyl]sulfonyl}-3,4,4′,5′-tetrahydro-2H-spiro[1-benzofuro[2,3-c]pyridine-1,3′-furan]]
69 | > 6.30 | O=S(=O)(c1ccc(Oc2ccccc2)cc1)c1ccc2c(c1)OC1CNCCC21 (stereo not shown) [Example 116]
70 | 6.00 to 6.30 | COc1ccc(S(=O)(=O)Oc2ccc3c(c2)C2CCNCC2O3)cc1 (stereo not shown) [Example 707]
71 | > 6.30 | COc1ccc(S(=O)(=O)Oc2ccc3c(c2)OC2CNCCC32)cc1 (stereo not shown) [Example 650]
72 | > 6.30 | O=S(=O)(c1ccc2c(c1)OC1CNCCC21)c1cccc(F)c1F (stereo not shown) [Example 411]
73 | > 6.30 | O=S(=O)(c1ccccc1)c1ccc2c3c(oc2c1)[C@]1(CCOC1)NCC3 (single isomer, unassigned) [Example 110]
